In patent US20070010459A1, “Application of asiatic acid and its derivatives to treat pulmonary fibrosis” (priority 2005, published 2007):
Values after ≈ are worked out from the molar mass of the structure shown.

Experiments:
[1] = system: pulmonary fibrosis induced by bleomycin in rat; experiment: Asiatic acid in bleomycin-induced pulmonary fibrosis rat model; type: in vivo, SD male rats; conditions: for Lung CT scanning results: after 28 days; for Lung Weight: mean
Excerpt: The pulmonary fibrosis animal model was induced by bleomycin in rat according to the methods described by Lazo J S, Hoyt D G, Sebti S M, Pitt B R. in Pharmacol Ther. 1990: 47:347-58. In this article, praquat, bleomycin and amiodrone are three routinely used chemical agent to induce lung fibrosis is rodents, e.g. mice, rat and Chinese hamsters as well as primates, e.g. baboon and cynomolgous monkey etc. there are also reports describing using rabbit or dog as model animal for such study. Different groups were able to generate lung fibrosis in animal models through different administration routes. For example, 3 various pulmonary fibrosis animal models using Co^60 to radiate rat, bleomycin or CCl4 injection into abdominal cavity of mice or rat respectively were generated. […] Specifically, diffusive stromal lung fibrosis model induced by tracheal bleomycin dripping is the most commonly used animal model. The advantage of this method is that the model can be obtained with once bleomycin dripping without repeated venous or abdominal injections, therefore limiting the influences to other organs caused by systematic administrations. It also lowers the experimental cost. The development of pulmonary fibrosis from alveolitis can be observed in 4 weeks, which is very similar to the pulmonary fibrosis pathological development in human being.
1. Animal: SD male rats with weight raging between 200-250 g, purchased from SLAC.
3. Dosage: Asiatic acid, 3, 9, […], po for 28 days.
Male SD rats were lay down flat on operating table and anesthetize with 3% Secobarbital. The trachea was exposed after sterilization of cervical part with alcohol. The needle was then inserted into tracheal cartilage interspace. Bleomycin at 5 mg/kg was dipped in. Afterwards, the rats were reared to evenly distribute bleomycin in the lung. The trachea was then sutured. […] The regimen was initiated on the second day. Sham-operated and untreated group received saline. After 28 days of treatment, lung weight, hydroyproline content, pathological section and CT scan were measured or conducted.
After 28 days on asiatic acid, rats were sacrificed and dissected. The body and lung weight were measured respectively and used to calculate lung weigh coefficient.
After 28 days on Asiatic acid, hydroxyproline content in lung was measured. The results are as follows:
After 28 days on asiatic acid, lung CT scans were performed to each group of experimental rats.
After 28 days on asiatic acid, the rats were sacrificed and dissected. Both lungs were harvested. The specimen were embedded and fixed then subjected to HE staining. The focus of infection were observed under microscope with ⅓, ⅔ and 3/3 Vf*10 to conduct semi-quantative analysis.

[2] = background statement, see U.S. Pat. No. 6,417,349; cited from earlier work
[3] = Pharmacokinetics, tissue distribution and excretion of asiaticoside; type: in vivo, rats; conditions: rat, in vivo, 100 mg/kg
Description: Three doses of asiaticoside (10, 33, 100 mg/kg) were gavaged to rats (n=6) and canines (n=4). After dosing, blood was sampled up to 120 or 216 hours in rats and canines respectively. Tissue distribution and excretion studies in rats were carried out with the highest dose.
The respective asiaticoside and asiatic acid in the same bio-matrix were detected by LC/MS/MS and GC/MS. Because the secondary peak resembled a plasma concentration-time profile in both rat and canine rather than conventional compartment fitting, statistical moment analysis was used in calculating pharmacokinetic parameters. […] In addition to the targeted organ, both asiaticoside and asiatic acid were distributed in some other organs, which could be the sign to expand clinical indications.

[4] = system: primary culture of mice fibroblast; experiment: bFGF-stimulated proliferation of primary fibroblast culture; type: cell-based; conditions: tested at 25, 12.5, 6.25, 3.125 or 1.56 μg
Description: Using bFGF (0.5 µg/ml), the proliferation of primary culture of mice fibroblast with the presence of asiaticoside or asiatic acid at 25, 12.5, 6.25, 3.125 or 1.56 μg respectively was assessed.

[5] = system: rats with pulmonary fibrosis induced by bleomycin; experiment: Pharmacodynamics of asiaticoside in rats with pulmonary fibrosis induced by bleomycin; type: in vivo
Description: The rats with lung fibrosis were induced by bleomycin through trachea administration and then treated with asiaticoside. […] The study regimen lasted for 28 days. The lung weight coefficient and hydroyproline (HXP) content were measured on day 2 and 8 after the formation of animal model. CT scan, pathology and serum ECM content measurements were conducted on day 14, 21 and 28 days respectively.

[6] = system: radiation pneumonia and subsequent pulmonary fibrosis induced by Cobalt-60 radiation; experiment: Pharmacodynamics of asiaticoside in radiation pneumonia induced by Cobalt-60 radiation; type: in vivo, rats; parameters: Type IV (collagen content comparison, serum ECM) / Laminin (serum ECM) / Hyaluronic Acid (serum ECM): unit not given here
Description: Radiation pneumonia and subsequent pulmonary fibrosis in rats was induced by Cobalt-60 radiation. The efficacies were assessed by the lung weight coefficient, HXP content, serum ECM measurement, CT scan and pathological examinations.

[7] = first experiment, asiatic acid high dose 27 mg/kg po 28 days
[8] = first experiment, asiatic acid low dose 3 mg/kg po 28 days
[9] = first experiment, asiatic acid medium dose 9 mg/kg po 28 days
[10] = second experiment, asiatic acid high dose 27 mg/kg po 28 days
[11] = second experiment, asiatic acid low dose 3 mg/kg po 28 days
[12] = second experiment, asiatic acid medium dose 9 mg/kg po 28 days
[13] = third experiment, asiatic acid high dose 27 mg/kg po 28 days
[14] = third experiment, asiatic acid low dose 3 mg/kg po 28 days
[15] = third experiment, asiatic acid medium dose 9 mg/kg po 28 days
[16] = dexamethasone 0.6 mg/kg daily oral, 28 days
[17] = first experiment, dexmethasone 0.6 mg/kg po 28 days
[18] = second experiment, dexmethasone 0.6 mg/kg po 28 days
[19] = third experiment, dexmethasone 0.6 mg/kg po 28 days

C[C@H]1[C@H](C)CC[C@]2(C(=O)O)CC[C@]3(C)C(=CC[C@@H]4[C@@]5(C)C[C@@H](O)[C@H](O)[C@@](C)(CO)[C@@H]5CC[C@]43C)[C@H]12 [Asiatic acid, asiatic acid]
CT: therapeutic effect in acute phase of pulmonary fibrosis ([1]; acute phase): didn't display any therapeutic effects | Lung CT scanning results ([1]; asiatic acid high dose 27 mg/kg po): Light glass infiltration, part of lobules consolidates. | Lung CT scanning results ([1]; asiatic acid low dose 3 mg/kg po): Consolidation in lobules, bronchiectasis, honeycomb | Pathology results (HE staining of lungs) ([1]; asiatic acid high, medium and low dose, 28 days, not dose dependent): light fibroplasias in alveoli pulmonis diaphragm, light lymphocyte infiltration and compensatory emphysema | Lung weight coefficient [1, 7]: 0.70 | Lung Weight [1, 7]: 2.17 g | Lung weight coefficient [1, 8]: 0.66 | Lung Weight [1, 8]: 1.97 g | Lung weight coefficient [1, 9]: 0.66 | Lung Weight [1, 9]: 2.02 g | HX content (hydroxyproline content in lung) X ± SD ([1]; first experiment, high dose 27 mg/kg po * 28): 2.39 ± 0.44 mg/g | HX content (hydroxyproline content in lung) X ± SD ([1]; first experiment, low dose 3 mg/kg po * 28): 3.43 ± 0.62 mg/g | HX content (hydroxyproline content in lung) X ± SD ([1]; first experiment, medium dose 9 mg/kg po * 28): 2.36 ± 0.87 mg/g | CT: therapeutic effect in mid to late phase of the disease ([1]; mid to late phase): can significantly relive the extent of fibrosis in lungs | Overall effect on lung fibrosis ([1]; rats receiving bleomycin induction, direct administration): can relieve lung fibrosis | Lung weight coefficient [1, 10]: 0.65 | Lung Weight [1, 10]: 2.26 g | Lung weight coefficient [1, 11]: 0.76 | Lung Weight [1, 11]: 2.34 g | Lung weight coefficient [1, 12]: 0.70 | Lung Weight [1, 12]: 2.21 g | HX content (hydroxyproline content in lung) X ± SD ([1]; second experiment, high dose 27 mg/kg po * 28): 2.37 ± 0.41 mg/g | HX content (hydroxyproline content in lung) X ± SD ([1]; second experiment, low dose 3 mg/kg po * 28): 3.41 ± 0.60 mg/g | HX content (hydroxyproline content in lung) X ± SD ([1]; second experiment, medium dose 9 mg/kg po * 28): 2.36 ± 0.79 mg/g | Lung weight coefficient [1, 13]: 0.70 | Lung Weight [1, 13]: 2.17 g | Lung weight coefficient [1, 14]: 0.66 | Lung Weight [1, 14]: 1.97 g | Lung weight coefficient [1, 15]: 0.66 | Lung Weight [1, 15]: 2.02 g | HX content (hydroxyproline content in lung) X ± SD ([1]; third experiment, high dose 27 mg/kg po * 28): 2.30 ± 0.46 mg/g | HX content (hydroxyproline content in lung) X ± SD ([1]; third experiment, low dose 3 mg/kg po * 28): 3.42 ± 0.57 mg/g | HX content (hydroxyproline content in lung) X ± SD ([1]; third experiment, medium dose 9 mg/kg po * 28): 2.71 ± 0.44 mg/g | Solubility [2]: insoluble in water | Tissue accumulation [3]: no apparent tissue accumulation | IC50 ([4]; Mus musculus, Fibroblast, bFGF, read-out: IC50, growth inhibition of fibroblast treated with bFGF): 137 µg/mL (≈ 280 µM) | Inhibitory activity on fibroblast proliferation ([4]; bFGF 0.5 g/ml): growth inhibitory roles to fibroblast treated with bFGF to certain extent

C[C@@H]1C[C@H]2[C@@H]3CCC4=CC(=O)C=C[C@]4(C)[C@@]3(F)[C@@H](O)C[C@]2(C)[C@@]1(O)C(=O)CO [Dexmethasone, Dexamethasone, reference compound]
CT scan findings ([5]; dexamethasone 0.6 mg/kg): ground glass infiltration and fibrotic streaks were found in both lungs | ET-1 (cytokine content) ([5]; dexamethasone 0.6 mg/kg): 257.86 ± 20.81 | Hyaluronic Acid (serum ECM) ([5]; dexamethasone 0.6 mg/kg): 232.97 ± 101.24 | Laminin (serum ECM) ([5]; dexamethasone 0.6 mg/kg): 48.41 ± 14.12 | PIIIP (collagen content comparison, serum ECM) ([5]; dexamethasone 0.6 mg/kg): 19.59 ± 6.24 | Pathology ([5]; dexamethasone 0.6 mg/kg): a light inflammatory reaction caused by lymphocyte was found with inflammatory cell infiltration seen in the alveoli pulmonis | TNF-α (cytokine content) ([5]; dexamethasone 0.6 mg/kg): 6.50 ± 0.73 | TNF-[…] (cytokine content) ([5]; dexamethasone 0.6 mg/kg): 0.075 ± 0.010 | Type IV (collagen content comparison, serum ECM) ([5]; dexamethasone 0.6 mg/kg): 10.71 ± 4.94 | HXP content [5, 16]: 19.32 ± 4.35 mg/g | Lung weight coefficient [5, 16]: 0.72% | Lung CT scanning results ([1]; dexmethasone 0.6 mg/kg po): Light hyperplasy in lung striation. Light consolidation | HX content (hydroxyproline content in lung) X ± SD ([1]; first experiment, 0.6 mg/kg po * 28): 2.34 ± 9.54 mg/g | Lung weight coefficient [1, 17]: 0.72 | Lung Weight [1, 17]: 1.90 g | HX content (hydroxyproline content in lung) X ± SD ([1]; second experiment, 0.6 mg/kg po * 28): 2.41 ± 0.45 mg/g | Lung weight coefficient [1, 18]: 0.69 | Lung Weight [1, 18]: 1.62 g | HX content (hydroxyproline content in lung) X ± SD ([1]; third experiment, 0.6 mg/kg po * 28): 2.47 ± 0.45 mg/g | Lung weight coefficient [1, 19]: 0.72 | Lung Weight [1, 19]: 1.90 g | CT scan findings ([6]; dexamethasone group): mild ground glass infiltration and fibrotic streaks in the right lung with right base atelectasis | HXP content ([6]; dexamethasone treated): 36.42 ± 2.74 mg/g | Hyaluronic Acid (serum ECM) ([6]; dexamethasone treated): 195.12 ± 55.89 | Laminin (serum ECM) ([6]; dexamethasone treated): 47.91 ± 8.04 | Lung weight coefficient ([6]; dexamethasone treated): 0.42% | PIIIP (collagen content comparison, serum ECM) ([6]; dexamethasone treated): 14.51 ± 5.61 | Type IV (collagen content comparison, serum ECM) ([6]; dexamethasone treated): 12.65 ± 2.87
